Literature values as cited in US20080319079A1 (priority 2006, published 2008).

What was measured:
[1] = test system: patients with reversible obstructive respiratory diseases; conditions: for duration of action (bronchodilation): patients with asthma and related respiratory illnesses, inhalation
[2] = repeated doses administered frequently up to a maximum dose of 80 μg per day

| Compound | onset of action ([1]; after inhalation) | duration of action (bronchodilation) [1] | side effects [2] |
| --- | --- | --- | --- |
| OCc1cc(C(O)CNCCCCCCOCCCCc2ccccc2)ccc1O (centres unmarked) [Salmeterol] | approximately thirty | twelve |  |
| COc1ccc(CC(C)NCC(O)c2ccc(O)c(NC=O)c2)cc1 (centres unmarked) [formoterol, N-[2-hydroxy-5-(1-hydroxy-2-((2-(4-methoxyphenyl)-1-methylethyl)-amino)-ethyl)phenyl]formamide] |  |  | no more side effects than short acting bronchodilators |
| CC(C)(C)NCC(O)c1ccc(O)c(CO)c1 (centres unmarked) [salbutamol] |  | four to six |  |
| CC(C)(C)NCC(O)c1cc(O)cc(O)c1 (centres unmarked) [terbutaline] |  | four to six |  |
